Test [1] concerns the target Human CB2R (Cannabinoid receptor 2) (Homo sapiens, UniProt P34972). The experiment in a line: CB-2 in vitro cAMP (HTRF) assay. In kind it is cell-based. The conditions noted are these: HEK cells, cAMP HTRF, 250 nM forskolin; mean where tested more than once; read-out: CB2 HEK_cAMP EC50. From the text: (§1) CB1 and CB2 receptors are Gi-coupled GPCR. Activation of CB1 and CB2 receptors results in a decrease in cAMP production. An inverse agonist of the CB1 or CB2 receptor results in the opposite effect, an increase of cAMP production. The principle of this assay is based on HTRF® technology (Homogeneous Time-Resolved Fluorescence). The method is a competitive immunoassay between native cAMP produced by cells and the cAMP labeled with the fluorophore d2. The tracer binding is quantified by a Mab anti-cAMP labeled with Eu3+TBP-NHS Cryptate (supplied as part of the assay kit). The specific signal (i.e. energy transfer) is inversely proportional to the concentration of cAMP in the standard or sample.
Human CB1R (Cannabinoid receptor 1) was stably transfected in HEK-293 cells (DiscoveRx, cat: 93-0200C1). Human CB2R (Cannabinoid receptor 2) was stably transfected in HEK-293 cells (DiscoveRx, cat: 93-0201C1). Cell cultures were maintained in media: DMEM (Invitrogen Cat#12430-054) supplemented with 10% HI FBS (Invitrogen Cat#16140-071), 1% L-glutamine (Invitrogen Cat#25030-081), 0.2 mg/ml Hygromycin B (Invitrogen Cat#10687-010), 600 μg/mL G418 (Invitrogen Cat#10131-035), and 1× Penn/Strep (Invitrogen 15140-122). After cell expansion, aliquots were cryo-stored in media containing 5% DMSO (Pierce Cat#20684).
(§2) One day prior to experiments media was warmed to 37° C. and the cryo-stored cells were thawed in a 37° C. water bath. The cells were then added to media (10× volume) and the mixture was centrifuged at 1000 RPM for 5 min. The supernate was removed and the cells were re-suspended in media. A sample of the cell suspension was evaluated on a Cedex XS automated cell counter (Innovatis Systems) to determine viable cells/ml. Additional media was added to the cells to achieve a final cell density of 4E5 cells/mL. The cells were then plated into 384 well PDL white solid bottom plates (Greiner, Cat#781945) at 20 μL per well using a Multidrop (Thermo Scientific). Cells were removed from Row P (location of cAMP standards). Two columns of cells were plated into a clear bottom 384 well PDL coated plate (Greiner, Cat#781944) to view confluence the day of the assay. The cell plates were lidded and stored for 15 minutes in a hood, then transferred to an incubator (37° C., 5% CO2, 95% humidity) overnight.
DMSO was added to all wells of 384 well V bottom polystyrene plate (Greiner, Cat#781280) except to columns 1 and 13, rows O and P and wells M13-M23 and N13-N23. Test compounds (60 μL, 10 mM) were added to Column 1 and 13 (A1 through N1 and A13 through L13). Test compounds were serially diluted 1/3 by transferring and mixing 20 μl sample with 40 μL DMSO.
DMSO (40 μL) was added to wells of 384 well V bottom polystyrene plate: O2 through O11, M14 through M23, N14 through N23, and O14 through O23. AM630 (also known as [6-iodo-2-methyl-1-[2-(4-morpholinyl)ethyl]-1H-indol-3-yl](4-methoxyphenyl)-methanone, Cayman Chemical, Cat#10006974) (60 μL, 10 mM) was added to O1; and 1-(2,4-dichlorophenyl)-7-[(4-fluorophenyl)methylene]-4,5,6,7-tetrahydro-N-1-piperidinyl-1H-benzimidazole-3-carboxamide (60 μL, 10 mM) was added to N13. The control was serially diluted 1/3 by transferring and mixing 20 μl sample with 40 μL DMSO. This process resulted 11 doses per control, 10 mM to […].
Cells plated the day prior to the assay in clear bottom plates were viewed on an inverse microscope to ensure confluency in the range of 60-75%. […]
Background: In TR-FRET formats the signal depends on donor and acceptor labels being close together.

The target of test [2] is Human CB1R (Cannabinoid receptor 1) (Homo sapiens, UniProt P21554). As to the kind of experiment: CB-1 in vitro cAMP (HTRF) assay. The conditions noted are these: HEK cells, cAMP HTRF, 250 nM forskolin; mean where tested more than once; read-out: CB1 HEK_cAMP EC50. The test is classed as cell-based.
Chain of Human CB1R (Cannabinoid receptor 1) (P21554 whole entry): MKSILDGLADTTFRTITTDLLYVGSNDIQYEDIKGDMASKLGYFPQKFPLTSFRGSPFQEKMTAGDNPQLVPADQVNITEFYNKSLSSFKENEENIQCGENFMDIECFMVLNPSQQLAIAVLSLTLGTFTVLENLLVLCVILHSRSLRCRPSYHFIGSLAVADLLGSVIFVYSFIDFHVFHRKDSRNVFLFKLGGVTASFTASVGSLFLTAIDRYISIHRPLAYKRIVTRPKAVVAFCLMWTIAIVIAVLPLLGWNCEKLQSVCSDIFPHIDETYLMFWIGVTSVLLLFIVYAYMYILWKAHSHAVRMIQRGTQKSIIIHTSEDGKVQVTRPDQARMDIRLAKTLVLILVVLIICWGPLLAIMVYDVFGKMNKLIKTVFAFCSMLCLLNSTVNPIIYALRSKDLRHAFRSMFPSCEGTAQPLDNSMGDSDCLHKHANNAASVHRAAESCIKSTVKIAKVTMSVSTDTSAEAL
Text: as §1
Human CB1R (Cannabinoid receptor 1) was stably transfected in HEK-293 cells (DiscoveRx, cat: 93-0200C1). Human CB2R (Cannabinoid receptor 2) was stably transfected in HEK-293 cells (DiscoveRx, cat: 93-0201C1).
as §2, with “The cells were then plated into 384 well PDL white solid bottom plates (Greiner, Cat#781945) at 20 μL per well using a Multidrop (Thermo Scientific).” left out, “Two columns of cells were plated into a clear bottom 384 well PDL coated plate (Greiner, Cat#781944) to view confluence the day of the assay.” left out
Test compounds (60 μL, 10 mM) were added to Column 1 and 13 (A1 through N1 and A13 through L13). Test compounds were serially diluted 1/3 by transferring and mixing 20 μl sample with 40 μL DMSO.
DMSO (40 μL) was added to wells of 384 well V bottom polystyrene plate: O2 through O11, M14 through M23, N14 through N23, and O14 through O23. […] The control was serially diluted 1/3 by transferring and mixing 20 μl sample with 40 μL DMSO. This process resulted 11 doses per control, 10 mM to 0.5 μM.
Cells plated the day prior to the assay in clear bottom plates were viewed on an inverse microscope to ensure confluency in the range of 60-75%.
A FLEXDROP (Perkin Elmer) was cleaned with ethanol then water, and primed with Buffer 2. A 384 well V bottom polypropylene plate containing d2 labelled cAMP and a second 384 well V bottom polypropylene plate containing anti-cAMP was prepared (50 μl per well). Media as “dumped” from the cell plate and 30 μL Buffer 1 was added to each well using a Multidrop. The content of the cell plate was again “dumped” and 10 μL Buffer 2 was added to each well using a Flexdrop. […] The cell plate was mixed (Speed 6, Lab-Line Instruments Titer Plate Shaker) and centrifuged (1000 RPMs, 1 min). […] The cell plate was again mixed (speed 6) and centrifuged (1000 RPMs, 1 min). The cell plate was incubated for 30 minutes at room temperature (˜27° C.). The contents of row P were removed and the cAMP standard dilutions were added in duplicate to Row P (P1-12 and P13-24). After incubation, 6 μL d2 labelled cAMP and 6 μL of Anti-cAMP were added to all wells of the cell plate using a BioMek FX (Beckman Coulter). The cell plate was again mixed (speed 6) and centrifuged (1000 RPMs, 1 min) and was incubated for 60 minutes in the dark at room Temp (˜27° C.).
After this final incubation, the cell plate was read in HTRF mode (fluorescence at 665 nm and 620 nm) on an Envision plate Reader (Perkin Elmer). The Envision reader outputs a ratio of channel 1/channel 2 fluorescence×10,000 (Normalized signal (NS)). Amount of cAMP in nM was calculated for each well (based on NS) from a cAMP standard curve located on each plate (at P1-12 and P13-24). EC50 values were determined from a 4-point fit (Hill equation) of a single 11-point compound dosing. Hill slope was fixed at 1.0.

A word on the EC50: it is the midpoint of the concentration-response curve.

Chain of Human CB2R (Cannabinoid receptor 2) (P34972 whole entry): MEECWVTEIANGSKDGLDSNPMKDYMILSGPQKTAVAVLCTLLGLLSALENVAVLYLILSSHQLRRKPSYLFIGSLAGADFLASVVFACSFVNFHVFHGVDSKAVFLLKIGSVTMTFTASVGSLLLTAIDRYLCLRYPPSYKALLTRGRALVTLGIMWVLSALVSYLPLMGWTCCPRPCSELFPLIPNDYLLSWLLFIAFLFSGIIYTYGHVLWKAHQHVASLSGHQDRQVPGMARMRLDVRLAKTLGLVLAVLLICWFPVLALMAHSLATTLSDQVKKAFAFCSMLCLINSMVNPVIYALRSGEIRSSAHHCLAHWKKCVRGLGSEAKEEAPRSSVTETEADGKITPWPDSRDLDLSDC

For `Cc1cc(C(N)=O)sc1S(=O)(=O)N1CCC(n2c(C3CC3)nc3ccc(C(c4ccc(Cl)cc4)c4ccc(Cl)cc4)cc32)CC1` [Example 215], the values for the EC50 in test [1] and in test [2] were above 10000 nM and 2 nM, respectively.

Turning to `O=C(O)c1ccnc(N2CCC(Cn3c(C4CC4)nc4ccc(C(c5ccc(Cl)cc5)c5ccc(Cl)cc5)cc43)CC2)n1` [Example 2], the EC50 in test [1] was found to be 5030 nM; in test [2] it was 479 nM.

Regarding `O=S(=O)(N1CCC(Cn2cnc3ccc(C(c4ccc(Cl)cc4)c4nccs4)cc32)CC1)C(F)(F)F` (centres unmarked) [Example 322], the EC50 in test [1] is above 10000 nM; in test [2] it was 621 nM.

Consider `NC(=O)[C@H]1CC[C@H](n2c(C3CC3)nc3ccc(C(c4ccc(Cl)cc4)c4ccc(Cl)cc4)cc32)CC1` [Example 135], for which the EC50 in test [1] is above 10000 nM; in test [2] it was 53.2 nM.

Regarding `O=C(O)c1ccc(Cl)c(CN2CCC(n3c(C4CC4)nc4ccc(C(c5ccc(Cl)cc5)c5ccc(Cl)cc5)cc43)CC2)c1` [Example 94], the EC50 in test [1] was 4760 nM; in test [2] it was 26.1 nM.

Regarding `Cc1ccc(S(=O)(=O)N2CCC(n3c(C4CC4)nc4ccc(C(c5ccc(Cl)cc5)c5ccc(Cl)cc5)cc43)CC2)cc1C(N)=O` [Example 168], the EC50 in test [1] is above 10000 nM; in test [2] it was 91.2 nM.

Turning to `O=S(=O)(N1CCC(n2c(C3CC3)nc3ccc(C(c4ccc(Cl)cc4)c4nccs4)cc32)CC1)C(F)(F)F` (centres unmarked) [Example 384], the EC50 in test [1] is above 10000 nM; in test [2], 12 nM.

For the molecule `O=C(O)c1ccccc1S(=O)(=O)N1CCC(n2c(C3CC3)nc3ccc(C(c4ccc(Cl)cc4)c4ccc(Cl)cc4)cc32)CC1` [Example 241], the EC50 was determined as 7900 nM in test [1] and 459 nM in test [2].

As to `O=C(O)c1cccc(S(=O)(=O)N[C@H]2CC[C@@H](n3c(C4CC4)nc4ccc(C(c5ccc(Cl)cc5)c5ccc(Cl)cc5)cc43)CC2)c1` [Example 43], the EC50 in test [1] turned out to be 12100 nM; in test [2], 113 nM.

Take `O=C(O)c1cccc(NC2CCC(n3c(C4CC4)nc4ccc(C(c5ccc(Cl)cc5)c5ccc(Cl)cc5)cc43)CC2)c1` (centres unmarked) [Example 40]: the EC50 stood at 5120 nM in test [1] and 104 nM in test [2].

With `Oc1ccc(-n2c(C3CC3)nc3ccc(C(c4ccc(Cl)cc4)c4ccc(Cl)cc4)cc32)cc1` [Example 171], the EC50 is above 10000 nM in test [1] and 167 nM in test [2].

In the case of `O=C(O)COc1ccc(-n2c(C3CC3)nc3ccc(C(c4ccc(Cl)cc4)c4ccc(Cl)cc4)cc32)cc1` [Example 165], the 50% effective concentration (EC50) in test [1] and in test [2] was above 10000 nM throughout.

With `COc1ccc(S(=O)(=O)N2CCC(n3c(C4CC4)nc4ccc(C(c5ccc(Cl)cc5)c5ccc(Cl)cc5)cc43)CC2)cc1C(=O)O` [Example 211], the EC50 in test [1] was found to be 10200 nM; in test [2], 589 nM.

With `O=C(c1nc[nH]n1)N1CCC(n2c(C3CC3)nc3ccc(C(c4ccccc4)c4ccccc4)cc32)CC1` [Example 200], the values for the EC50 in test [1] and in test [2] were 6310 nM and 4720 nM, respectively.

`Cc1nc2ccc(C(c3ccc(Cl)cc3)c3nccs3)cc2n1C1Cc2ccccc2C1` (centres unmarked) [Example 361]: the EC50 in test [1] was above 10000 nM; in test [2], 2020 nM.

Regarding `O=S(=O)(N1CCC(n2c(-c3ccncc3)nc3ccc(C(c4ccc(Cl)cc4)c4nccs4)cc32)CC1)C(F)(F)F` (centres unmarked) [Example 390], the EC50 in test [1] was above 10000 nM; in test [2] it was 242 nM.

For the molecule `CCOC(=O)N1CCC(n2c(-c3nccs3)nc3ccc(C(c4ccc(Cl)cc4)c4nccs4)cc32)CC1` (centres unmarked) [Example 419], the EC50 in test [1] is above 10000 nM; in test [2], 1180 nM.

On to `Clc1ccc(CCn2c(C3CC3)nc3ccc(C(c4ccc(Cl)cc4)c4nccs4)cc32)cc1` (centres unmarked) [Example 338], for which the EC50 in test [1] was found to be 4000 nM; in test [2] it was 59.7 nM.

For the molecule `CC(c1cc(C(=O)O)ccn1)N1CCC(n2c(C3CC3)nc3ccc(C(c4ccc(Cl)cc4)c4ccc(Cl)cc4)cc32)CC1` (centres unmarked) [Example 59], the EC50 in test [1] is above 21000 nM; in test [2], 3.8 nM.

Turning to `O=S(=O)(N1CCC(n2c(C3CC3)nc3ccc(C(c4ccc(Cl)cc4)c4ccc5c(c4)OCO5)cc32)CC1)C(F)(F)F` (centres unmarked) [Example 321], the values for the EC50 in test [1] and in test [2] were 4030 nM and 6.2 nM, respectively.

On to `O=C(O)c1ccc(OCCn2c(C3CC3)nc3ccc(C(c4ccc(Cl)cc4)c4ccc(Cl)cc4)cc32)cc1` [Example 35], for which the results for the EC50 in test [1] and in test [2] were 4360 nM and 3340 nM, respectively.

Regarding `COc1ccc(-n2c(C3CC3)nc3ccc(C(c4ccc(Cl)cc4)c4ccc(Cl)cc4)cc32)cc1` [Example 179], the EC50 in test [1] was above 10000 nM; in test [2], 1.7 nM.

On to `NC(=O)CC(=O)N1CCC(n2c(C3CC3)nc3ccc(C(c4ccc(Cl)cc4)c4ccc(Cl)cc4)cc32)CC1` [Example 278], for which the EC50 in test [1] was above 10000 nM; in test [2], 50.5 nM.

Take `CC(C(O)c1ccccc1)n1c(C2CC2)nc2ccc(C(c3ccc(Cl)cc3)c3ccc(Cl)cc3)cc21` (centres unmarked) [Example 299]: the EC50 in test [1] is 1030 nM; in test [2] it was 578 nM.

For `CCOC(=O)N1CCC(n2c(CC(C)C)nc3ccc(C(c4ccc(Cl)cc4)c4nccs4)cc32)CC1` (centres unmarked) [Example 420], the EC50 in test [1] is above 10000 nM; in test [2], 231 nM.

The values above are taken from patent US20190031618A1, “BENZIMIDAZOLE DERIVATIVES USEFUL AS CB-1 INVERSE AGONISTS” (Janssen Pharmaceutica NV, priority 2015, published 2019).
